Measured values from patent EP0573253B1, “Topical anti-bacterial composition” (UNILEVER PLC, priority 1992, dated 1993).

Columns and labels:
[1] = test system: Staphylococcus aureus; test: Agar dilution test, minimum inhibitory concentration; format: cell-based; settings: for MINIMUM INHIBITORY CONCENTRATION: Trypticase Soy Agar II plates
Protocol: (§1) Standard agar dilution tests in order to establish the minimum inhibitory concentration (% v/v) for C6 acyl lactylate, C8 acyl lactylate and C12 acyl lactylate were performed both in the presence and the absence of a lipid on the following micro-organisms: • 1. Propionibacterium acnes • 2. Staphylococcus aureus • 3. Escherichia coli • 4. Candida albicans
(§2) Control experiments were performed employing benzoyl peroxide and erthyromycin.
(§3) The present tests were performed using Trypticase Soy Agar II incorporation plates with and without 10% intralipid, supplied by Kabi Pharmacia Inc. In each case the lactylate being tested was used at a starting concentration of 10,000 ug/ml.

[2] = test system: Escherichia coli; test: as above; format: cell-based; settings: for MINIMUM INHIBITORY CONCENTRATION: Trypticase Soy Agar II plates; for inhibitory against gram-negative bacteria: text summary of Table II, lipid condition not stated
Protocol: as §1, §2, §3

[3] = test system: Candida albicans; test: as above; format: cell-based; settings: for MINIMUM INHIBITORY CONCENTRATION: Trypticase Soy Agar II plates
Protocol: as §1, §2, §3

[4] = test system: Propionibacterium acnes; test: as above; format: cell-based; settings: Trypticase Soy Agar II plates
Protocol: as §1, §2, §3

[5] = test system: rate of hair loss; test: Reduction of the rate of hair loss, panel of human volunteers (brushing and hair count); format: in vivo; settings: human panellists, about 3 ml applied to the scalp daily at night, compared with placebo composition B; Student t-test
Protocol: The effect of selected acyl lactylates, as herein defined, on reducing the rate of hair loss was assessed using a panel of human volunteers.
Each panellist was requested to brush his or her hair immediately on getting out of bed in the morning before other grooming took place. The hair brushing consisted of ten vigorous strokes over the entire head from front to back, ten strokes from back to front and then ten strokes from each side to the opposite side. Brushing was carried out over a towel or other light cloth to collect any hairs that fell. In addition, all the hairs on the brush were removed with forceps. The total number of hair collected each day was counted. Panellists were requested to continue with their routine hair shampooing and grooming techniques as usual, the only change to this routine being the application of products in accordance with the invention or corresponding control or placebo products.
During the first month, each panellist carried out only the standard brushing, collecting and counting of hairs lost to provide a basis for comparison later. For the second and third months, the scalp was treated by adding the test or placebo compositions in addition to the standard brushing technique as previously described. […]
The results were analysed by the standard Student t-test.

[6] = text summary of Table II, lipid condition not stated

Molecule	MINIMUM INHIBITORY CONCENTRATION ([1]; Lipid (10% intralipid))	MINIMUM INHIBITORY CONCENTRATION ([1]; No Lipid)	MINIMUM INHIBITORY CONCENTRATION ([2]; Lipid (10% intralipid))	MINIMUM INHIBITORY CONCENTRATION ([2]; No Lipid)	MINIMUM INHIBITORY CONCENTRATION ([3]; Lipid (10% intralipid))	MINIMUM INHIBITORY CONCENTRATION ([3]; No Lipid)	MINIMUM INHIBITORY CONCENTRATION ([4]; Lipid (10% intralipid))	MINIMUM INHIBITORY CONCENTRATION ([4]; No Lipid)	inhibitory against gram-negative bacteria [2] [% v/v]	reduction in the rate of loss of hair [5]	inhibitory to gram-positive bacteria [1, 6] [% v/v]	inhibitory effect against yeast [3, 6] [% v/v]
O=C(OOC(=O)c1ccccc1)c1ccccc1 [Benzoyl Peroxide, benzoyl peroxide, reference compound]	0.12 % V/V	0.25 % V/V	0.12 % V/V	0.25 % V/V	0.12 % V/V	0.25 % V/V	0.06 % V/V	0.25 % V/V				
CC[C@H]1OC(=O)[C@H](C)[C@@H](O[C@H]2C[C@@](C)(OC)[C@@H](O)[C@H](C)O2)[C@H](C)[C@@H](O[C@@H]2O[C@H](C)C[C@H](N(C)C)[C@H]2O)[C@](C)(O)C[C@@H](C)C(=O)[C@H](C)[C@@H](O)[C@]1(C)O [Erthyromycin, erthyromycin, reference compound]	3.1 x 10^-4 % V/V	3.1 x 10^-4 % V/V	0.01 % V/V	0.01 % V/V	0.01 % V/V	0.01 % V/V	<1.9 x 10^-5 % V/V	<1.9 x 10^-5 % V/V				
C6 acyl lactylate [C6 Lactylate]	pH Effect	" "	" "	" "	" "	" "	0.5 % V/V	pH Effect				
C8 acyl lactylate [C8 Lactylate]	0.5 % V/V	0.5 % V/V	1.0 % V/V	1.0 % V/V	1.0 % V/V	1.0 % V/V	0.5 % V/V	0.25 % V/V	1			
C12 acyl lactylate [C12 Lactylate]	0.5 % V/V	0.06 % V/V	>1.0 % V/V	>1.0 % V/V	>1.0 % V/V	>1.0 % V/V	0.25 % V/V	0.00039 % V/V	> 1	significantly reduced	0.0625	> 1
